Assay results as given in PubChem BioAssay (NCI).
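48-hour exposure; five concentrations; linearly interpolated endpoints. TGI: total growth inhibition.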

Columns and labels:
Assay in all cases: inhibition of tumour cell growth, NCI panel, 48 h
786-0 renal = test system: 786-0 renal
A498 renal = test system: A498 renal
A549 NSCLC = test system: A549 NSCLC
ACHN renal = test system: ACHN renal
BT-549 breast = test system: BT-549 breast
CAKI-1 renal = test system: CAKI-1 renal
COLO 205 colon = test system: COLO 205 colon
EKVX NSCLC = test system: EKVX NSCLC
HCT-116 colon = test system: HCT-116 colon
HCT-15 colon = test system: HCT-15 colon
HOP-62 NSCLC = test system: HOP-62 NSCLC
HOP-92 NSCLC = test system: HOP-92 NSCLC
HS 578T breast = test system: HS 578T breast
HT29 colon = test system: HT29 colon
IGROV1 ovarian = test system: IGROV1 ovarian
K-562 leukemia = test system: K-562 leukemia
KM12 colon = test system: KM12 colon
LOX IMVI melanoma = test system: LOX IMVI melanoma
M14 melanoma = test system: M14 melanoma
MALME-3M melanoma = test system: MALME-3M melanoma
MCF7 breast = test system: MCF7 breast
MDA-MB-231 breast = test system: MDA-MB-231 breast
MDA-MB-435 = test system: MDA-MB-435
MDA-N = test system: MDA-N
MOLT-4 leukemia = test system: MOLT-4 leukemia
NCI-H226 lung = test system: NCI-H226 lung
NCI-H23 lung = test system: NCI-H23 lung
NCI-H460 lung = test system: NCI-H460 lung
NCI-H522 lung = test system: NCI-H522 lung
NCI/ADR-RES ovarian = test system: NCI/ADR-RES ovarian
OVCAR-3 ovarian = test system: OVCAR-3 ovarian
OVCAR-4 ovarian = test system: OVCAR-4 ovarian
OVCAR-5 ovarian = test system: OVCAR-5 ovarian
OVCAR-8 ovarian = test system: OVCAR-8 ovarian
PC-3 prostate = test system: PC-3 prostate
RPMI-8226 leukemia = test system: RPMI-8226 leukemia
RXF 393 renal = test system: RXF 393 renal
SF-268 CNS = test system: SF-268 CNS
SF-295 CNS = test system: SF-295 CNS
SF-539 CNS = test system: SF-539 CNS
SK-MEL-2 melanoma = test system: SK-MEL-2 melanoma
SK-MEL-28 melanoma = test system: SK-MEL-28 melanoma
SK-MEL-5 melanoma = test system: SK-MEL-5 melanoma
SK-OV-3 ovarian = test system: SK-OV-3 ovarian
SN12C renal = test system: SN12C renal
SNB-19 CNS = test system: SNB-19 CNS
SNB-75 CNS = test system: SNB-75 CNS
SR leukemia = test system: SR leukemia
SW-620 colon = test system: SW-620 colon
T-47D breast = test system: T-47D breast
TK-10 renal = test system: TK-10 renal
U251 CNS = test system: U251 CNS
UACC-257 melanoma = test system: UACC-257 melanoma
UACC-62 melanoma = test system: UACC-62 melanoma
UO-31 renal = test system: UO-31 renal
CCRF-CEM leukemia = test system: CCRF-CEM leukemia
DU-145 prostate = test system: DU-145 prostate
HCC-2998 colon = test system: HCC-2998 colon
HL-60(TB) leukemia = test system: HL-60(TB) leukemia

c1ccc(CNCCN2CCNCC2)nc1
TGI (786-0 renal): > 100 µM
TGI (A498 renal): > 100 µM
TGI (A549 NSCLC): > 100 µM
TGI (ACHN renal): > 100 µM
TGI (BT-549 breast): > 100 µM
TGI (CAKI-1 renal): > 100 µM
TGI (COLO 205 colon): > 100 µM
TGI (EKVX NSCLC): > 100 µM
TGI (HCT-116 colon): > 100 µM
TGI (HCT-15 colon): > 100 µM
TGI (HOP-62 NSCLC): > 100 µM
TGI (HOP-92 NSCLC): > 100 µM
TGI (HS 578T breast): > 100 µM
TGI (HT29 colon): > 100 µM
TGI (IGROV1 ovarian): > 100 µM
TGI (K-562 leukemia): > 100 µM
TGI (KM12 colon): > 100 µM
TGI (LOX IMVI melanoma): > 100 µM
TGI (M14 melanoma): > 100 µM
TGI (MALME-3M melanoma): > 100 µM
TGI (MCF7 breast): > 100 µM
TGI (MDA-MB-231 breast): > 100 µM
TGI (MDA-MB-435): > 100 µM
TGI (MDA-N): > 100 µM
TGI (MOLT-4 leukemia): > 100 µM
TGI (NCI-H226 lung): > 100 µM
TGI (NCI-H23 lung): > 100 µM
TGI (NCI-H460 lung): > 100 µM
TGI (NCI-H522 lung): > 100 µM
TGI (NCI/ADR-RES ovarian): > 100 µM
TGI (OVCAR-3 ovarian): > 100 µM
TGI (OVCAR-4 ovarian): > 100 µM
TGI (OVCAR-5 ovarian): > 100 µM
TGI (OVCAR-8 ovarian): > 100 µM
TGI (PC-3 prostate): > 100 µM
TGI (RPMI-8226 leukemia): > 100 µM
TGI (RXF 393 renal): > 100 µM
TGI (SF-268 CNS): > 100 µM
TGI (SF-295 CNS): > 100 µM
TGI (SF-539 CNS): > 100 µM
TGI (SK-MEL-2 melanoma): > 100 µM
TGI (SK-MEL-28 melanoma): > 100 µM
TGI (SK-MEL-5 melanoma): > 100 µM
TGI (SK-OV-3 ovarian): > 100 µM
TGI (SN12C renal): > 100 µM
TGI (SNB-19 CNS): > 100 µM
TGI (SNB-75 CNS): > 100 µM
TGI (SR leukemia): > 100 µM
TGI (SW-620 colon): > 100 µM
TGI (T-47D breast): > 100 µM
TGI (TK-10 renal): > 100 µM
TGI (U251 CNS): > 100 µM
TGI (UACC-257 melanoma): > 100 µM
TGI (UACC-62 melanoma): > 100 µM
TGI (UO-31 renal): > 100 µM

C/C(=N\O)c1ccc2cc(Br)c3ccccc3c2c1
TGI (786-0 renal): 43 µM
TGI (A498 renal): 35.4 µM
TGI (A549 NSCLC): > 100 µM
TGI (ACHN renal): > 100 µM
TGI (BT-549 breast): 64 µM
TGI (CAKI-1 renal): > 100 µM
TGI (CCRF-CEM leukemia): 61.1 µM
TGI (DU-145 prostate): > 100 µM
TGI (EKVX NSCLC): 45.9 µM
TGI (HCC-2998 colon): 29.7 µM
TGI (HCT-116 colon): 25.8 µM
TGI (HCT-15 colon): 34.7 µM
TGI (HL-60(TB) leukemia): 44.7 µM
TGI (HOP-62 NSCLC): 46.8 µM
TGI (HOP-92 NSCLC): 46.6 µM
TGI (HS 578T breast): 88.2 µM
TGI (HT29 colon): 20.5 µM
TGI (IGROV1 ovarian): > 100 µM
TGI (K-562 leukemia): > 100 µM
TGI (KM12 colon): 32.6 µM
TGI (LOX IMVI melanoma): 32.8 µM
TGI (M14 melanoma): 41.2 µM
TGI (MALME-3M melanoma): 35.3 µM
TGI (MCF7 breast): 35.2 µM
TGI (MDA-MB-231 breast): 32.1 µM
TGI (MDA-MB-435): 69.9 µM
TGI (MDA-N): 43.6 µM
TGI (NCI-H23 lung): 44.4 µM
TGI (NCI-H460 lung): 43.2 µM
TGI (NCI-H522 lung): 33 µM
TGI (NCI/ADR-RES ovarian): 47.5 µM
TGI (OVCAR-3 ovarian): 33.3 µM
TGI (OVCAR-4 ovarian): > 100 µM
TGI (OVCAR-5 ovarian): 25.8 µM
TGI (OVCAR-8 ovarian): 60.9 µM
TGI (RPMI-8226 leukemia): 50.9 µM
TGI (RXF 393 renal): 31.9 µM
TGI (SF-268 CNS): > 100 µM
TGI (SF-295 CNS): 37.5 µM
TGI (SK-MEL-2 melanoma): 32 µM
TGI (SK-MEL-28 melanoma): 42.6 µM
TGI (SK-MEL-5 melanoma): 32 µM
TGI (SK-OV-3 ovarian): > 100 µM
TGI (SN12C renal): 48.3 µM
TGI (SNB-19 CNS): > 100 µM
TGI (SNB-75 CNS): > 100 µM
TGI (SR leukemia): > 100 µM
TGI (SW-620 colon): > 100 µM
TGI (T-47D breast): 93.3 µM
TGI (TK-10 renal): 39.8 µM
TGI (U251 CNS): 28.7 µM
TGI (UACC-257 melanoma): 33.2 µM
TGI (UACC-62 melanoma): 47.2 µM
TGI (UO-31 renal): 36.7 µM

COc1ccccc1N1C(=O)/C(=C\c2cc(OC)c(OC)c(OC)c2)SC1c1ccccc1 (stereo not given)
TGI (786-0 renal): > 100 µM
TGI (A498 renal): > 100 µM
TGI (A549 NSCLC): > 100 µM
TGI (ACHN renal): > 100 µM
TGI (BT-549 breast): > 100 µM
TGI (CAKI-1 renal): > 100 µM
TGI (CCRF-CEM leukemia): 45.5 µM
TGI (COLO 205 colon): > 100 µM
TGI (DU-145 prostate): > 100 µM
TGI (EKVX NSCLC): > 100 µM
TGI (HCC-2998 colon): > 100 µM
TGI (HCT-116 colon): > 100 µM
TGI (HCT-15 colon): > 100 µM
TGI (HL-60(TB) leukemia): > 100 µM
TGI (HOP-62 NSCLC): > 100 µM
TGI (HOP-92 NSCLC): > 100 µM
TGI (HS 578T breast): > 100 µM
TGI (HT29 colon): > 100 µM
TGI (K-562 leukemia): 38.2 µM
TGI (KM12 colon): > 100 µM
TGI (LOX IMVI melanoma): > 100 µM
TGI (M14 melanoma): 91.7 µM
TGI (MALME-3M melanoma): 81.4 µM
TGI (MCF7 breast): > 100 µM
TGI (MDA-MB-231 breast): > 100 µM
TGI (MDA-MB-435): 53.5 µM
TGI (MDA-N): 42.5 µM
TGI (MOLT-4 leukemia): > 100 µM
TGI (NCI-H226 lung): > 100 µM
TGI (NCI-H23 lung): > 100 µM
TGI (NCI-H460 lung): > 100 µM
TGI (NCI-H522 lung): > 100 µM
TGI (NCI/ADR-RES ovarian): > 100 µM
TGI (OVCAR-3 ovarian): > 100 µM
TGI (OVCAR-4 ovarian): > 100 µM
TGI (OVCAR-5 ovarian): > 100 µM
TGI (OVCAR-8 ovarian): > 100 µM
TGI (RPMI-8226 leukemia): 25.4 µM
TGI (RXF 393 renal): > 100 µM
TGI (SF-268 CNS): > 100 µM
TGI (SF-295 CNS): > 100 µM
TGI (SF-539 CNS): > 100 µM
TGI (SK-MEL-2 melanoma): > 100 µM
TGI (SK-MEL-28 melanoma): > 100 µM
TGI (SK-MEL-5 melanoma): > 100 µM
TGI (SK-OV-3 ovarian): > 100 µM
TGI (SN12C renal): > 100 µM
TGI (SNB-19 CNS): > 100 µM
TGI (SR leukemia): 72.7 µM
TGI (SW-620 colon): > 100 µM
TGI (T-47D breast): > 100 µM
TGI (TK-10 renal): > 100 µM
TGI (U251 CNS): > 100 µM
TGI (UACC-257 melanoma): > 100 µM
TGI (UACC-62 melanoma): > 100 µM
TGI (UO-31 renal): > 100 µM
